Experimental data taken from ChEMBL document CHEMBL1133777, “De novo design of a novel oxazolidinone analogue as a potent and selective alpha1A adrenergic receptor antagonist with high oral bioavailability” (J Med Chem, 2000).

Assays:
Homo sapiens = species: Homo sapiens; assay: In vitro inhibition of A-61603 induced contractions in human prostate tissue; assay type: functional; conditions: Prostate gland
Canis familiaris [1] = species: Canis familiaris; assay: In vitro inhibition of phenylephrine induced contractions in dog prostate tissue; assay type: functional; conditions: Canis lupus familiaris, Prostate gland
Rattus norvegicus [2] = species: Rattus norvegicus; assay: In vitro inhibition of A-61603 induced contractions in rat prostate tissue; assay type: functional; conditions: Prostate gland
Rattus norvegicus [3] = species: Rattus norvegicus; assay: In vitro inhibition of norepinephrine induced contractions in isolated rat aorta; assay type: functional
Canis familiaris [4] = assay: In vivo for selective antagonistic activity against diastolic blood pressure in dog, using phenylephrine as agonist; assay type: functional, Canis lupus familiaris, Artery
Rattus norvegicus [5] = assay: Compound was tested in situ for the inhibition of phenylephrine-induced contractions in anesthetized rat; assay type: functional
Canis familiaris [6] = assay: In vivo for selective antagonistic activity against intra-urethral pressure in dog, using phenylephrine as agonist; assay type: functional, Canis lupus familiaris, Urethra
[7] = target: T1, Alpha-1B adrenergic receptor (Homo sapiens, UniProt P35368); assay: Binding affinity towards Alpha1B human adrenergic receptors, using [125I]HEAT as radioligand.
T1 sequence (P35368 whole entry): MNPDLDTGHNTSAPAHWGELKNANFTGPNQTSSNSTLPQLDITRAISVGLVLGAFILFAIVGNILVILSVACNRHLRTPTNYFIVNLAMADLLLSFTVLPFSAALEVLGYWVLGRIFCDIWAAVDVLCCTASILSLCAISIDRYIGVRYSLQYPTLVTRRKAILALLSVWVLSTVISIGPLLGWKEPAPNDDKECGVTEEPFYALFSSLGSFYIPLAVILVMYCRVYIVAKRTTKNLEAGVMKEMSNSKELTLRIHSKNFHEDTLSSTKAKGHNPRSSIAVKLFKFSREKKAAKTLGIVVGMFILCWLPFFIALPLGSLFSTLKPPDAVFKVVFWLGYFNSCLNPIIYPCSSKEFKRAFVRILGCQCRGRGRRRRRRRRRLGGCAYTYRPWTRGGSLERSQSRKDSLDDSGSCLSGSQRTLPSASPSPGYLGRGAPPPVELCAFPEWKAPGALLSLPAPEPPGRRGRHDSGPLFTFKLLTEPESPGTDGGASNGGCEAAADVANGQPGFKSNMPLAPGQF

[8] = target: 5-hydroxytryptamine receptor 1B (Homo sapiens, UniProt P28222); assay: Binding affinity towards 5-hydroxytryptamine 1B receptor using [3H]5-HT as radioligand.
[9] = target: T2, Alpha-1D adrenergic receptor (Homo sapiens, UniProt P25100); assay: Binding affinity towards Alpha1D human adrenergic receptors, using [125I]HEAT as radioligand.
T2 sequence (P25100 whole entry): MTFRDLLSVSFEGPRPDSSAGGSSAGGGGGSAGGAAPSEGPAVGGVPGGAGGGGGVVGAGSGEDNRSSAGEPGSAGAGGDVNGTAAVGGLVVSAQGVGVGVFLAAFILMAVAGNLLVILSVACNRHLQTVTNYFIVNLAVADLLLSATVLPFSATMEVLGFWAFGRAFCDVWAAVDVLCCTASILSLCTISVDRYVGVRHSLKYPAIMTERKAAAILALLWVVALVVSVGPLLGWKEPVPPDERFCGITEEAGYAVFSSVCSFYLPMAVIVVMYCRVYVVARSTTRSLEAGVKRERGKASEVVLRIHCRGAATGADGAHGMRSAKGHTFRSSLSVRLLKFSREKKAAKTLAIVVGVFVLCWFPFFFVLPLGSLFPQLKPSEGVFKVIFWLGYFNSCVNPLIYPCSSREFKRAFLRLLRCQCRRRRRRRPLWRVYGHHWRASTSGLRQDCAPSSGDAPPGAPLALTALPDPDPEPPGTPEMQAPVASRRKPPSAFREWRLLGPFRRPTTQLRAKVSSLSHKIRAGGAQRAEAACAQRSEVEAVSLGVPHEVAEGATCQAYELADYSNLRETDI

[10] = Oral bioavailability in dog; assay type: ADME, organism-based, Canis lupus familiaris; conditions: in vivo
Histamine H1 receptor = Histamine H1 receptor (Homo sapiens, UniProt P35367); assay: Binding affinity towards Histamine H1 receptor in human brain tissue preparation, using [3H]pyrilamine as radioligand.
[11] = target: T3, Alpha-1B adrenergic receptor (Rattus norvegicus, UniProt P15823); assay: Binding affinity towards Alpha1B rat adrenergic receptors, using [125I]HEAT as radioligand.
T3 sequence (P15823 whole entry): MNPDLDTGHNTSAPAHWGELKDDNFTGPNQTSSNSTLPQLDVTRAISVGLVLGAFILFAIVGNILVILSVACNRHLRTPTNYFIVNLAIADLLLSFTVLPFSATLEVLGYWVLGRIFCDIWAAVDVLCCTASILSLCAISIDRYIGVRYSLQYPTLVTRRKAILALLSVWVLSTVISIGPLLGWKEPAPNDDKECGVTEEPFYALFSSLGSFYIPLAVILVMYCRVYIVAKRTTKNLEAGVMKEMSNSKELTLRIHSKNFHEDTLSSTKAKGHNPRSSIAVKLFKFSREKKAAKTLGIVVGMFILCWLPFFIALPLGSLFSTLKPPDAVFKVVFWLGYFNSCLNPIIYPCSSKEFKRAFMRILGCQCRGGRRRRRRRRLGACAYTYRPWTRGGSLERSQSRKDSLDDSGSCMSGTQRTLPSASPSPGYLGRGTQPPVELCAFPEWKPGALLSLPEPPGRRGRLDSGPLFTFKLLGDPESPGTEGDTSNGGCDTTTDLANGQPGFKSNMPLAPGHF

[12] = Half-life in dog; assay type: ADME, organism-based, Canis lupus familiaris; conditions: in vivo
[13] = target: T4, Alpha-2C adrenergic receptor (Homo sapiens, UniProt P18825); assay: Binding affinity towards human alpha-2C-adrenergic receptor, using [3H]rauwolscine as radioligand.
T4 sequence (P18825 whole entry): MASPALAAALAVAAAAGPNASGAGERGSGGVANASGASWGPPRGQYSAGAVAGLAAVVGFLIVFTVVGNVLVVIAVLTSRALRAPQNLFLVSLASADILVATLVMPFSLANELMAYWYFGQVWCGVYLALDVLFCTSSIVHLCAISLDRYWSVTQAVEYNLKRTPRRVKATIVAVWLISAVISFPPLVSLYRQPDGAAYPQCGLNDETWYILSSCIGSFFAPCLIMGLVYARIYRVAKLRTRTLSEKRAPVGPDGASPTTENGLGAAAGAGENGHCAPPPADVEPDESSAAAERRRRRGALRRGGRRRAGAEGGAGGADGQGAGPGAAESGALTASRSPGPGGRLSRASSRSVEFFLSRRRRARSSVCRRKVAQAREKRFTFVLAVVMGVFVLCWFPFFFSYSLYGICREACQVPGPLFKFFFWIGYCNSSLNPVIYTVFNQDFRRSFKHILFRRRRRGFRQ

[14] = target: Voltage-gated L-type calcium channel (Rattus norvegicus, UniProt P22002+Q02485+P27732); assay: Inhibition of [3H]nitrendipine binding to rat L-type Ca-channel receptor; assay type: protein assay
[15] = target: T5, Alpha-1D adrenergic receptor (Rattus norvegicus, UniProt P23944); assay: Binding affinity towards Alpha1D rat adrenergic receptors, using [125I]HEAT as radioligand.
T5 sequence (P23944 whole entry): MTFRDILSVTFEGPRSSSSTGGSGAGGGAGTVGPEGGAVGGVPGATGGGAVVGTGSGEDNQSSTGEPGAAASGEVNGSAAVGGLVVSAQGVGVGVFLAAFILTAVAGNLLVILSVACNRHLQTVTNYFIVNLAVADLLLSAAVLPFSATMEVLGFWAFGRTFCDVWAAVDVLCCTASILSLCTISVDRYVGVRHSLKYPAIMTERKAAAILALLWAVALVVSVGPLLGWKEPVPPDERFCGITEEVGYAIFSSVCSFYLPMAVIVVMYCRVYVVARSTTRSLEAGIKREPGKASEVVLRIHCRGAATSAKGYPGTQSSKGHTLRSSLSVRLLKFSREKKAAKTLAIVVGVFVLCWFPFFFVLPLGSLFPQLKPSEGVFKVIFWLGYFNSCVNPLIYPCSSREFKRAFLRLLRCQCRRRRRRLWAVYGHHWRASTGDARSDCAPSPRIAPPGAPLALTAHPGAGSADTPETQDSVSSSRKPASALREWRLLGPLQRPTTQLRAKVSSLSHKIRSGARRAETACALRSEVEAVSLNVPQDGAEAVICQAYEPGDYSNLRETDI

[16] = Oral bioavailability in rat; assay type: ADME, organism-based; conditions: in vivo
[17] = target: T6, Alpha-2B adrenergic receptor (Homo sapiens, UniProt P18089); assay: Binding affinity towards human alpha-2B-adrenergic receptor, using [3H]rauwolscine as radioligand.
T6 sequence (P18089 whole entry): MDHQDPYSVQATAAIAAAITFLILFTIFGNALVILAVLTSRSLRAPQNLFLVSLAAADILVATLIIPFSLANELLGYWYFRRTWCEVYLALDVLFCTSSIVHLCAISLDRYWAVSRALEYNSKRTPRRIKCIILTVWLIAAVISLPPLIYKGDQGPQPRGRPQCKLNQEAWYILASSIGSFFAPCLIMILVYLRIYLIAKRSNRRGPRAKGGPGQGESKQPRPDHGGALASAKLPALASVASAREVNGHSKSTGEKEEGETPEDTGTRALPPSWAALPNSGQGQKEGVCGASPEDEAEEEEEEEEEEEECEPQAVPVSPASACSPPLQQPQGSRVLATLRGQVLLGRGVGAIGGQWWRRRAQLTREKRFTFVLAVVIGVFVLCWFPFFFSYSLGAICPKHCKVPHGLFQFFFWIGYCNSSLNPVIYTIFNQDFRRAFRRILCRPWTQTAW

[18] = target: 5-hydroxytryptamine receptor 2A (Homo sapiens, UniProt P28223); assay: Binding affinity towards 5-hydroxytryptamine 2A receptor using [3H]5-HT as radioligand.
[19] = target: 5-hydroxytryptamine receptor 1D (Homo sapiens, UniProt P28221); assay: Binding affinity towards 5-HT1D receptor, using [3H]5-HT as radioligand.
Histamine H2 receptor = Histamine H2 receptor (Homo sapiens, UniProt P25021); assay: Binding affinity towards human Histamine H2 receptor, using [3H]tiotidine as radioligand.
[20] = target: T7, Alpha-2A adrenergic receptor (Homo sapiens, UniProt P08913); assay: Binding affinity towards human alpha-2A-adrenergic receptor, using [3H]rauwolscine as radioligand.
T7 sequence (P08913 whole entry): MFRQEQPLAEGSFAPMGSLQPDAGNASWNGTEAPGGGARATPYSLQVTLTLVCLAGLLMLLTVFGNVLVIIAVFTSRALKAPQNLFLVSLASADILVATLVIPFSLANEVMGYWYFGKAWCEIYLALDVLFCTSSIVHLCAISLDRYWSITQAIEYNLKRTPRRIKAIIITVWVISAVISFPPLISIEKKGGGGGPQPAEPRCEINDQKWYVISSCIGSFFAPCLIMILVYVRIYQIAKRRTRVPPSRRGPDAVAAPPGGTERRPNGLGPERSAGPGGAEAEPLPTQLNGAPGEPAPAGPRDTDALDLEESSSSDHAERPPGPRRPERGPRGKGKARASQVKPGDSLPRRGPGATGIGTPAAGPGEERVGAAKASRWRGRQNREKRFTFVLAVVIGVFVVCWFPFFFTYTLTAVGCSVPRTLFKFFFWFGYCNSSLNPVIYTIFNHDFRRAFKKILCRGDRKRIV

[21] = target: T8, 5-hydroxytryptamine receptor 1A (Mus musculus, UniProt Q64264); assay: Binding affinity towards 5-hydroxytryptamine 1A receptor receptor, using [3H]5-HT as radioligand.
T8 sequence (Q64264 whole entry): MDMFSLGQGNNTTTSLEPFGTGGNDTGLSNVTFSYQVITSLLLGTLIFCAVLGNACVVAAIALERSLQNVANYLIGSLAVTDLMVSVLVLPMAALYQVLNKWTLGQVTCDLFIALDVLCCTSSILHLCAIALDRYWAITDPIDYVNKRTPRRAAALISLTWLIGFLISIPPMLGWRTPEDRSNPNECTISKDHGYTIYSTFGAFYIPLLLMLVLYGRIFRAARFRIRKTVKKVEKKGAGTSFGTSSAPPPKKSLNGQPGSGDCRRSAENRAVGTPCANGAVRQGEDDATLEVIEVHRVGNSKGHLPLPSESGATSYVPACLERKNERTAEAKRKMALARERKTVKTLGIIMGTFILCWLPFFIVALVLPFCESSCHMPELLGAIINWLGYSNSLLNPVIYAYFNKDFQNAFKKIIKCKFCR

[22] = Half-life in rat; assay type: ADME, organism-based; conditions: in vivo

Sequence of Histamine H1 receptor (P35367 whole entry): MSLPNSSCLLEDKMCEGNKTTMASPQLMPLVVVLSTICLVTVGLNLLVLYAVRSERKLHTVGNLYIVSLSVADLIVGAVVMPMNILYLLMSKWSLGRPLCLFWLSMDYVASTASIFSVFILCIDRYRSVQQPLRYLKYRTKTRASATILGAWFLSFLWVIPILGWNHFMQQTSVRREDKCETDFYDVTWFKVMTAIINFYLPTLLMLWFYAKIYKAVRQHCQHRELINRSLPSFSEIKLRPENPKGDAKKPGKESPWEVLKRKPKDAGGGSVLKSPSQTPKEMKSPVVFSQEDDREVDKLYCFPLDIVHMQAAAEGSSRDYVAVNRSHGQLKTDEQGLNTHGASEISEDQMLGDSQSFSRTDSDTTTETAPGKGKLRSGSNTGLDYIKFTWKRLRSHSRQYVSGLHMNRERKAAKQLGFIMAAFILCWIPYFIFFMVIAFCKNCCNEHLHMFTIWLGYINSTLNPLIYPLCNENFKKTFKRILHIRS
Sequence of 5-hydroxytryptamine receptor 1D (P28221 whole entry): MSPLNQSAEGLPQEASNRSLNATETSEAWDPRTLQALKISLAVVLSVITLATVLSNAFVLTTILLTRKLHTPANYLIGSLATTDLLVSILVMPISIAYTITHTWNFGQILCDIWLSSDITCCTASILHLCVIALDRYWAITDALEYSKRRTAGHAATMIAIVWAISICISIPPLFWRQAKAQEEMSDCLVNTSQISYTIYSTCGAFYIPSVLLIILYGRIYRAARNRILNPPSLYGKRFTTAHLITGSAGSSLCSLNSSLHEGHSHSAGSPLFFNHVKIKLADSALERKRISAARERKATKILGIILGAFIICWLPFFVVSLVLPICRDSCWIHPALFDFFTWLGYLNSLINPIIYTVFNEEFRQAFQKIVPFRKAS
Sequence of 5-hydroxytryptamine receptor 1B (P28222 whole entry): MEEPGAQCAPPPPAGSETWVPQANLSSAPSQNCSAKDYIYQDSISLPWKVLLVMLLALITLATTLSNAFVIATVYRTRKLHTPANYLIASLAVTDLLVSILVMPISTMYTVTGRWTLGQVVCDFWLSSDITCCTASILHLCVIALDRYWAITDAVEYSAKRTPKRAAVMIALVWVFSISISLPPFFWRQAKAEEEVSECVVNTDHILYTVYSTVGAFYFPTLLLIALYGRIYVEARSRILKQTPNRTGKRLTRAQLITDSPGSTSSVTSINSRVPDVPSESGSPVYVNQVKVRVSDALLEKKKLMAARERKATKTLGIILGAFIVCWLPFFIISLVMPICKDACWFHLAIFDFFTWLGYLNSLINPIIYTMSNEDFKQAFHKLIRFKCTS
Sequence of Histamine H2 receptor (P25021 whole entry): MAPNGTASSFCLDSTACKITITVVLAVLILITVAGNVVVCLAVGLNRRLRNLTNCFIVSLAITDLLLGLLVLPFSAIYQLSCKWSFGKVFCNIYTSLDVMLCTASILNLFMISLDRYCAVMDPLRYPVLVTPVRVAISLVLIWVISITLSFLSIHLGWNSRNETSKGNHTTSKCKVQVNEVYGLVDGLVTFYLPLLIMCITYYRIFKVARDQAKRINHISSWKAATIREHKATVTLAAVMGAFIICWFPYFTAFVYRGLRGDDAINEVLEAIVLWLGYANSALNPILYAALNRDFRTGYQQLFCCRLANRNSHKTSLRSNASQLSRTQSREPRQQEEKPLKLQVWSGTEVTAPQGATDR
Sequence of 5-hydroxytryptamine receptor 2A (P28223 whole entry): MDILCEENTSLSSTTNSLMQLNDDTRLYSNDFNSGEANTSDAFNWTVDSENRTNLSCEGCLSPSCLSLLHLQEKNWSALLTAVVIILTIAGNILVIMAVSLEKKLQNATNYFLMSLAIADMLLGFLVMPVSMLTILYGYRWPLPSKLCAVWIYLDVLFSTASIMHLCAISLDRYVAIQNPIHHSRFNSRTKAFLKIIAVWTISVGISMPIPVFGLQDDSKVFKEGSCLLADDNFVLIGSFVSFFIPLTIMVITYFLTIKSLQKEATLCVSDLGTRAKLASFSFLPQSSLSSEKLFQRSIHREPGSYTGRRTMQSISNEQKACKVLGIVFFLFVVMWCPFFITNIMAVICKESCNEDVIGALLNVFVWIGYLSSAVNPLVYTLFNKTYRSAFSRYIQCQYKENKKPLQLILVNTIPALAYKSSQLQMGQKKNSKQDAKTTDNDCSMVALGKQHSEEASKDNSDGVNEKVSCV

Compound: COc1cc2nc(N3CCN(C(=O)C4CCCO4)CC3)nc(N)c2cc1OC (configuration not stated) [TERAZOSIN]
- Kb (Homo sapiens): 25 nM
- Kb (Canis familiaris [1]): 130 nM
- Kb (Rattus norvegicus [2]): 25 nM
- Kb (Rattus norvegicus [3]): 19 nM
- DBP15 (Canis familiaris [4]): 72 µg/kg
- AD50 (Rattus norvegicus [5]): 0.052 mg/kg
- Kb (Canis familiaris [6]): 16 µg/kg

Compound: C[C@@H]1OC(=O)N(C(=O)NCCCN2CCC(c3ccc(F)cc3)CC2)[C@H]1c1ccc(F)c(F)c1
- Ki [7]: 119 nM
- Ki [8]: > 500 nM
- Ki [9]: 122 nM
- Kb (Homo sapiens): 0.1 nM
- bioavailability [10]: 74%
- Ki (Histamine H1 receptor): 54 nM
- Ki [11]: 79 nM
- Kb (Canis familiaris [1]): 0.33 nM
- Kb (Rattus norvegicus [2]): 0.26 nM
- half-life [12]: > 12 h
- Ki [13]: > 45 nM
- Ki [14]: > 1000 nM
- Kb (Rattus norvegicus [3]): > 1000 nM
- Ki [15]: 62 nM
- DBP15 (Canis familiaris [4]): >300 µg/kg
- bioavailability [16]: 25%
- Ki [17]: > 45 nM
- Ki [18]: > 500 nM
- Ki [19]: > 500 nM
- Ki (Histamine H2 receptor): > 1000 nM
- AD50 (Rattus norvegicus [5]): 0.012 mg/kg
- Ki [20]: > 45 nM
- Kb (Canis familiaris [6]): 3 µg/kg
- Ki [21]: > 500 nM
- half-life [22]: 6 h
